Measurements: patent publication US6310091A, “Fungicidal saponin, CAY-1, and isolation thereof from Capsium species fruit” (The United States of America as represented by the …, priority 2000, dated 2001)
Several values for one entry are separate records, joined by “and”; a condition that tells them apart may be missing. Identical values can stand only once. Like-named read-outs stand apart in the source and are kept apart here.

Assays:
Pneumocystis carinii = assay: Effect on Pneumocystis carinii viability (ATP-driven bioluminescent assay); format: cell-based; conditions: Pneumocystis carinii; for activity at 10 µM / activity at 2.5 µM / activity at 5 µM / activity at 20 µM / activity at 40 µM / activity at 80 µM: read-out: Percent of Control Mean; for activity at 2.5 µM: 3.2 μg/ml; for activity at 5 µM: 6.3 μg/ml; for activity at 20 µM: 25 μg/ml; for activity at 40 µM: 50 μg/ml; for activity at 80 µM: 100 μg/ml
Description: 3. Pneumocystis carinii. The effect of CAY-1 on Pneumocystis carinii was determined as described previously [Cushion et al., Antimicrob. Agents Chemother., 1997, 41:379-384, herein incorporated by reference]. This assay is based on an ATP-driven bioluminescent reaction and was used to determine the concentration of CAY-1 which decreased the P. carinii ATP pools.

Aspergillus parasiticus = assay: Fungicidal bioassay on nongerminated and germinating conidia of A. parasiticus; format: cell-based; conditions: for activity at 5 µM / activity at 10 µM / activity at 15 µM / activity at 20 µM / minimal effective concentration: Aspergillus parasiticus, 0.5 h; for activity at 5 µM / activity at 10 µM / activity at 15 µM / activity at 20 µM: read-out: Percent of Mean Control; for viability reduction: 20.0 μM (24.8 μg/ml)
Description: 1. Filamentous fungi. Filamentous fungi used in bioassays included Aspergillus flavus, A. fumigatus, A. niger, A. parasiticus and Fusarium oxysporum. The fungicidal properties of CAY-1 for the nongerminated and germinating conidia of these fungi were determined separately as described by De Lucca et al. [Med. Mycol., 36:291-298 (1998)] and De Lucca et al. [Antimicrob. Agents Chemother. 43:371-373 (1999)]. […] Two separate experiments were conducted in each medium (n=8 per medium).
A suspension of the aforementioned fungi were prepared separately in the appropriate medium. Conidia (10^4 conidia/ml) were used immediately for the nongerminated conidial assays while conidia (10^5 conidia/ml) were incubated for 7.5 hours at 30° C. to obtain germinating conidia. Serial dilutions of CAY-1 were prepared in the appropriate medium (totaling 225 μl) to which was added 25 μl of the conidial suspensions. The control consisted of 225 μl of medium and 25 μl of the conidial suspension. After mixing, the samples were incubated for 30 min (30° C.). Samples were then spread on potato dextrose agar plates which were incubated at 30° C. for 24 hours. Colonies were then enumerated.
Statistical analyses. ANOVA analyses on ranks for nonparametric data were performed for the bioassays described in this example.

[1] = nongerminated, RPMI-1640, 5.0 μM
[2] = nongerminated, RPMI-1640, 10.0 μM
[3] = nongerminated, RPMI-1640, 15.0 μM
[4] = nongerminated, RPMI-1640, 20.0 μM

For `CC1CCC2(OC1)OC1CC3C4CCC5CC(OC6OC(CO)C(OC7OC(CO)C(O)C(OC8OC(CO)C(O)C(OC9OC(CO)C(O)C(O)C9O)C8O)C7OC7OC(CO)C(O)C(O)C7O)C(O)C6O)C(O)CC5(C)C4CCC3(C)C1C2C` (stereo not drawn) [CAY-1], which killing at 10 µM (Pneumocystis carinii; 48 h, read-out: P. carinii killed) is on record?
Its killing at 10 µM is ≥ 34.6%.

And the activity at 10 µM (Pneumocystis carinii; 48 h)?
Its activity at 10 µM is 11.8%.

And the activity at 2.5 µM (Pneumocystis carinii; 48 h, Day 2)?
The activity at 2.5 µM was 98.2%.

What about the activity at 5 µM (Pneumocystis carinii; 48 h, Day 2) of the same compound?
Its activity at 5 µM is 56.9%.

What about the activity at 20 µM (Pneumocystis carinii; 48 h, Day 2) of the same compound?
Its activity at 20 µM is 5.5%.

And the activity at 40 µM (Pneumocystis carinii; 48 h, Day 2)?
Its activity at 40 µM is 2.2%.

What about the activity at 80 µM (Pneumocystis carinii; 48 h, Day 2) of the same compound?
The activity at 80 µM was 0.9%.

What about the killing at 40.3 µM (Pneumocystis carinii; 72 h, read-out: P. carinii cells killed) of the same compound?
The killing at 40.3 µM was 93%.

What about the activity at 10 µM (Pneumocystis carinii; 72 h) of the same compound?
Its activity at 10 µM is 12.1%.

What about the activity at 2.5 µM (Pneumocystis carinii; 72 h, Day 3) of the same compound?
The activity at 2.5 µM was 99.8%.

What about the activity at 5 µM (Pneumocystis carinii; 72 h, Day 3) of the same compound?
The activity at 5 µM was 46.6%.

What about the activity at 20 µM (Pneumocystis carinii; 72 h, Day 3) of the same compound?
Its activity at 20 µM is 3.3%.

And the activity at 40 µM (Pneumocystis carinii; 72 h, Day 3)?
The activity at 40 µM was 1%.

What about the activity at 80 µM (Pneumocystis carinii; 72 h, Day 3) of the same compound?
The activity at 80 µM was 0.3%.

What about the minimal effective concentration (Pneumocystis carinii; read-out: concentration at which lethality begins) of the same compound?
Its minimal effective concentration is 5 µM.

What about the minimal effective concentration (Pneumocystis carinii; read-out: lowest effective level in vitro) of the same compound?
Its minimal effective concentration is ~5 µM.

What about the activity at 5 µM (Aspergillus parasiticus; germinated, RPMI-1640, 5.0 μM) of the same compound?
The activity at 5 µM was 56.6%.

What about the activity at 10 µM (Aspergillus parasiticus; germinated, RPMI-1640, 10.0 μM) of the same compound?
The activity at 10 µM was 17.5%.

What about the activity at 15 µM (Aspergillus parasiticus; germinated, RPMI-1640, 15.0 μM) of the same compound?
Its activity at 15 µM is 12.7%.

And the activity at 20 µM (Aspergillus parasiticus; germinated, RPMI-1640, 20.0 μM)?
Its activity at 20 µM is 8.1%.

And the activity at 5 µM (Aspergillus parasiticus; germinating, 1% PDB, 5.0 μM)?
The activity at 5 µM was 61.9%.

What about the activity at 10 µM (Aspergillus parasiticus; germinating, 1% PDB, 10.0 μM) of the same compound?
The activity at 10 µM was 28%.

And the activity at 15 µM (Aspergillus parasiticus; germinating, 1% PDB, 15.0 μM)?
Its activity at 15 µM is 21%.

What about the activity at 20 µM (Aspergillus parasiticus; germinating, 1% PDB, 20.0 μM) of the same compound?
Its activity at 20 µM is 16.5%.

What about the activity at 5 µM (Aspergillus parasiticus; nongerminated, 1% PDB, 5.0 μM) of the same compound?
Its activity at 5 µM is 97.3%.

What about the activity at 10 µM (Aspergillus parasiticus; nongerminated, 1% PDB, 10.0 μM) of the same compound?
The activity at 10 µM was 100%.

And the activity at 15 µM (Aspergillus parasiticus; nongerminated, 1% PDB, 15.0 μM)?
Its activity at 15 µM is 93.9%.

What about the activity at 20 µM (Aspergillus parasiticus; nongerminated, 1% PDB, 20.0 μM) of the same compound?
The activity at 20 µM was 94.5%.

What about the activity at 5 µM (Aspergillus parasiticus; [1]) of the same compound?
The activity at 5 µM was 103%.

What about the activity at 10 µM (Aspergillus parasiticus; [2]) of the same compound?
The activity at 10 µM was 103%.

And the activity at 15 µM (Aspergillus parasiticus; [3])?
The activity at 15 µM was 87.9%.

What about the activity at 20 µM (Aspergillus parasiticus; [4]) of the same compound?
Its activity at 20 µM is 97.6%.

What about the minimal effective concentration (Aspergillus parasiticus; read-out: concentration required for significant viability reduction) of the same compound?
The minimal effective concentration was 12.4 µg/mL.

What about the minimal effective concentration (Aspergillus parasiticus; germinating conidia, 1% PDB, p=0.001, read-out: concentration significantly reducing viability) of the same compound?
The minimal effective concentration was 5 µM and 6.2 µg/mL.

And the minimal effective concentration (Aspergillus parasiticus; germinating conidia, RPMI-1640, p=0.0002, read-out: concentration required for significant viability reduction)?
Its minimal effective concentration is 10 µM.

What about the “Mean No. of Colonies” value (Aspergillus parasiticus; germinated, RPMI-1640, 5.0 μM) of the same compound?
Its value is 40.1.

What about the “Mean No. of Colonies” value (Aspergillus parasiticus; germinated, RPMI-1640, 10.0 μM) of the same compound?
The value was 12.4.

What about the “Mean No. of Colonies” value (Aspergillus parasiticus; germinated, RPMI-1640, 15.0 μM) of the same compound?
Its value is 9.0.

And the “Mean No. of Colonies” value (Aspergillus parasiticus; germinated, RPMI-1640, 20.0 μM)?
The value was 5.7.

What about the viability reduction (Aspergillus parasiticus; germinating conidia, 1% PDB) of the same compound?
The viability reduction was 85%.

And the viability reduction (Aspergillus parasiticus; germinating conidia, RPMI-1640)?
Its viability reduction is 92%.

What about the “Mean No. of Colonies” value (Aspergillus parasiticus; germinating, 1% PDB, 5.0 μM) of the same compound?
Its value is 95.5.

What about the “Mean No. of Colonies” value (Aspergillus parasiticus; germinating, 1% PDB, 10.0 μM) of the same compound?
The value was 43.3.

And the “Mean No. of Colonies” value (Aspergillus parasiticus; germinating, 1% PDB, 15.0 μM)?
Its value is 32.5.

And the “Mean No. of Colonies” value (Aspergillus parasiticus; germinating, 1% PDB, 20.0 μM)?
The value was 25.5.

What about the “viability of nongerminated conidia” value (Aspergillus parasiticus; nongerminated conidia, either test medium) of the same compound?
The value was “not affected”.

What about the “Mean No. of Colonies” value (Aspergillus parasiticus; nongerminated, 1% PDB, 5.0 μM) of the same compound?
Its value is 53.1.

And the “Mean No. of Colonies” value (Aspergillus parasiticus; nongerminated, 1% PDB, 10.0 μM)?
The value was 54.6.

What about the “Mean No. of Colonies” value (Aspergillus parasiticus; nongerminated, 1% PDB, 15.0 μM) of the same compound?
Its value is 51.3.

And the “Mean No. of Colonies” value (Aspergillus parasiticus; nongerminated, 1% PDB, 20.0 μM)?
The value was 51.9.

What about the “Mean No. of Colonies” value (Aspergillus parasiticus; [1]) of the same compound?
The value was 42.5.

What about the “Mean No. of Colonies” value (Aspergillus parasiticus; [2]) of the same compound?
The value was 42.5.

And the “Mean No. of Colonies” value (Aspergillus parasiticus; [3])?
The value was 36.4.

And the “Mean No. of Colonies” value (Aspergillus parasiticus; [4])?
The value was 40.4.
